Consider 23 compounds from patent publication US7064124B2, “NF-κB inhibitor containing substituted benzoic acid derivative as active ingredient” (Daiichi Suntory Pharma Co., Ltd., priority 2001, dated 2006).

As usually defined, the melting point is the temperature of the solid-liquid transition.

In turn, `COC1=C(OC)C(=O)C(Cc2ccc(OC(C)=O)c(C(=O)Nc3cccc([N+](=O)[O-])c3)c2)=C(C)C1=O` [Example 143, N-[5-(5,6-Dimethoxy-3-methyl-1,4-benzoquinon-2-yl)methyl-2-acetoxybenzoyl]-3-nitroaniline] came in with a melting point of 152 to 153.5 °C.

The compound `COC1=C(OC)C(=O)C(Cc2ccc(O)c(C(=O)Nc3cccc([N+](=O)[O-])c3)c2)=C(C)C1=O` [Example 144, N-[5-(5,6-Dimethoxy-3-methyl-1,4-benzoquinon-2-yl)methyl-2-hydroxybenzoyl]-3-nitroaniline] came in with a melting point of 153 to 154 °C.

`COC1=C(OC)C(=O)C(Cc2ccc(OC(C)=O)c(C(=O)Nc3ccccc3C(F)(F)F)c2)=C(C)C1=O` [Example 145, N-[5-(5,6-Dimethoxy-3-methyl-1,4-benzoquinon-2-yl)methyl-2-acetoxybenzoyl]-2-trifluoromethylaniline] yielded a melting point of 57.5 to 60 °C.

Consider `COC1=C(OC)C(=O)C(Cc2ccc(OC(C)=O)c(C(=O)Nc3cccc(C(F)(F)F)c3)c2)=C(C)C1=O` [Example 151, N-[5-(5,6-Dimethoxy-3-methyl-1,4-benzoquinon-2-yl)methyl-2-acetoxybenzoyl]-3-trifluoromethylaniline], for which the melting point lay within 98 to 100 °C.

On to `COC1=C(OC)C(=O)C(Cc2ccc(O)c(C(=O)Nc3cccc(C(F)(F)F)c3)c2)=C(C)C1=O` [Example 152, N-[5-(5,6-Dimethoxy-3-methyl-1,4-benzoquinon-2-yl)methyl-2-hydroxybenzoyl]-3-trifluoromethylaniline], for which the melting point was in the range of 127.5 to 130 °C.

`COC1=C(OC)C(=O)C(Cc2ccc(OC(C)=O)c(C(=O)Nc3ccccc3[N+](=O)[O-])c2)=C(C)C1=O` [Example 153, N-[5-(5,6-Dimethoxy-3-methyl-1,4-benzoquinon-2-yl)methyl-2-acetoxybenzoyl]-2-nitroaniline]: the melting point was 97.5 to 100 °C.

For `COC1=C(OC)C(=O)C(Cc2ccc(O)c(C(=O)Nc3ccccc3[N+](=O)[O-])c2)=C(C)C1=O` [Example 154, N-[5-(5,6-Dimethoxy-3-methyl-1,4-benzoquinon-2-yl)methyl-2-hydroxybenzoyl]-2-nitroaniline], the melting point lay in the range of 155 to 156 °C.

For `COC1=C(OC)C(=O)C(Cc2ccc(OC(C)=O)c(C(=O)Nc3ccccn3)c2)=C(C)C1=O` [Example 155, N-(Pyridin-2-yl)-5-(5,6-dimethoxy-3-methyl-1,4-benzoquinon-2-yl)methyl-2-acetoxybenzamide], the melting point was 124 to 126.5 °C.

For `COC1=C(OC)C(=O)C(Cc2ccc(O)c(C(=O)Nc3ccccn3)c2)=C(C)C1=O` [Example 156, N-(Pyridin-2-yl)-5-(5,6-dimethoxy-3-methyl-1,4-benzoquinon-2-yl)methyl-2-hydroxybenzamide], the melting point lay in the range of 180 to 183 °C.

Compound `COC1=C(OC)C(=O)C(Cc2ccc(OC(C)=O)c(C(=O)NC3CC3)c2)=C(C)C1=O` [Example 159, N-Cyclopropyl-5-(5,6-dimethoxy-3-methyl-1,4-benzoquinon-2-yl)methyl-2-acetoxybenzamide] displayed a melting point of 95.5 to 98 °C.

`COC1=C(OC)C(=O)C(Cc2ccc(O)c(C(=O)NC3CC3)c2)=C(C)C1=O` [Example 160, N-Cyclopropyl-5-(5,6-dimethoxy-3-methyl-1,4-benzoquinon-2-yl)methyl-2-hydroxybenzamide] returned a melting point of 111 to 112 °C.

As to `COC1=C(OC)C(=O)C(Cc2ccc(OC(C)=O)c(C(=O)NC3CCCCC3)c2)=C(C)C1=O` [Example 161, N-Cyclohexyl-5-(5,6-dimethoxy-3-methyl-1,4-benzoquinon-2-yl)methyl-2-acetoxybenzamide], the melting point was in the range of 137.5 to 140 °C.

For `COC1=C(OC)C(=O)C(Cc2ccc(O)c(C(=O)NC3CCCCC3)c2)=C(C)C1=O` [Example 162, N-Cyclohexyl-5-(5,6-dimethoxy-3-methyl-1,4-benzoquinon-2-yl)methyl-2-hydroxybenzamide], the melting point was 107 to 109 °C.

`COC1=C(OC)C(=O)C(Cc2cccc(C(=O)Nc3ccc(C(F)(F)F)cc3)c2OC(C)=O)=C(C)C1=O` [Example 165, N-[3-(5,6-Dimethoxy-3-methyl-1,4-benzoquinon-2-yl)methyl-2-acetoxybenzoyl]-4-trifluoromethylaniline] returned a melting point of 163 to 166 °C.

In turn, `COC1=C(OC)C(=O)C(Cc2cccc(C(=O)Nc3ccc(C(F)(F)F)cc3)c2O)=C(C)C1=O` [Example 166, N-[3-(5,6-Dimethoxy-3-methyl-1,4-benzoquinon-2-yl)methyl-2-hydroxybenzoyl]-4-trifluoromethylaniline] displayed a melting point of 129 to 131.5 °C.

The compound `CCOC(=O)c1ccc(NC(=O)c2cc(CC3=C(C)C(=O)C(OC)=C(OC)C3=O)ccc2OCc2cccnc2)cc1` [Example 167, Ethyl N-[5-(5,6-dimethoxy-3-methyl-1,4-benzoquinon-2-yl)methyl-2-(3-pyridylmethyloxy)benzoyl]-4-aminobenzoate] returned a melting point of 83 to 85.5 °C.

`COC1=C(OC)C(=O)C(Cc2ccc(OCc3cccnc3)c(C(=O)Nc3ccncc3)c2)=C(C)C1=O` [Example 168, N-(Pyridin-4-yl)-5-(5,6-dimethoxy-3-methyl-1,4-benzoquinon-2-yl)methyl-2-(3-pyridylmethyloxy)benzamide]: the melting point was 116 to 119 °C.

The compound `COC1=C(OC)C(=O)C(Cc2ccc(OCc3cccnc3)c(C(=O)Nc3cccnc3)c2)=C(C)C1=O` [Example 169, N-(Pyridin-3-yl)-5-(5,6-dimethoxy-3-methyl-1,4-benzoquinon-2-yl)methyl-2-(3-pyridylmethyloxy)benzamide] registered a melting point of 135 to 137 °C.

Turning to `COC1=C(OC)C(=O)C(Cc2ccc(OCc3cccnc3)c(C(=O)NC3CC3)c2)=C(C)C1=O` [Example 170, N-Cyclopropyl-5-(5,6-dimethoxy-3-methyl-1,4-benzoquinon-2-yl)methyl-2-(3-pyridylmethyloxy)benzamide], the melting point was 87 to 89.5 °C.

Turning to `COC1=C(OC)C(=O)C(Cc2ccc(OCc3cccnc3)c(C(=O)Nc3ccc(C(F)(F)F)cc3)c2)=C(C)C1=O` [Example 172, N-[5-(5,6-Dimethoxy-3-methyl-1,4-benzoquinon-2-yl)methyl-2-(3-pyridylmethyloxy)benzoyl]-4-trifluoromethylaniline], the melting point fell in the range of 173 to 176 °C.

Take `COC1=C(OC)C(=O)C(Cc2cccc(C(=O)Nc3ccc(S(=O)(=O)C(F)(F)F)cc3)c2OC(C)=O)=C(C)C1=O` [Example 175, N-[3-(5,6-Dimethoxy-3-methyl-1,4-benzoquinon-2-yl)methyl-2-acetoxybenzoyl]-4-(trifluoromethylsulfonyl)aniline]: the melting point was 87 to 89 °C.

`COC1=C(OC)C(=O)C(Cc2cccc(C(=O)Nc3ccc(Cl)cc3Cl)c2O)=C(C)C1=O` [Example 177, N-[3-(5,6-Dimethoxy-3-methyl-1,4-benzoquinon-2-yl)methyl-2-hydroxybenzoyl]-2,4-dichloroaniline]: the melting point was 147 to 150 °C.

Consider `COC1=C(OC)C(=O)C(Cc2cccc(C(=O)Nc3ccc(N4CCOCC4)cc3)c2OC(C)=O)=C(C)C1=O` [Example 178, N-[3-(5,6-Dimethoxy-3-methyl-1,4-benzoquinon-2-yl)methyl-2-acetoxybenzoyl]-4-morpholinoaniline], for which the melting point lay in the range of 168 to 171 °C.
